Assays:
[1] = test system: ECHCG; assay: A. Herbicidal pre-emergence action on harmful plants (Tables A); type: in vivo, Echinochloa crus-galli; conditions: visual grading after ca. 3 weeks vs untreated controls, 100% = plants have died off, 0% = as control plants
In short: (§1)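 Greenhouse pre-emergence test: compound applied to the soil surface at 1280 g/ha or below, and herbicidal effect rated visually at ca. 3 weeks on a 0–100% scale against untreated plants.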

[2] = test system: LOLRI; assay: as above; type: in vivo, Lolium rigidum; conditions: visual grading after ca. 3 weeks vs untreated controls, 100% = plants have died off, 0% = as control plants
In short: as §1

[3] = test system: MATIN; assay: as above; type: in vivo, Matricaria inodora; conditions: visual grading after ca. 3 weeks vs untreated controls, 100% = plants have died off, 0% = as control plants
In short: as §1

[4] = test system: SETVI; assay: as above; type: in vivo, Setaria viridis; conditions: visual grading after ca. 3 weeks vs untreated controls, 100% = plants have died off, 0% = as control plants
In short: as §1

[5] = test system: STEME; assay: as above; type: in vivo, Stellaria media; conditions: visual grading after ca. 3 weeks vs untreated controls, 100% = plants have died off, 0% = as control plants
In short: as §1

[6] = test system: POAAN; assay: as above; type: in vivo, Poa annua
In short: as §1

[7] = test system: AMARE; assay: as above; type: in vivo, Amaranthus retroflexus
In short: as §1

[8] = test system: ALOMY; assay: as above; type: in vivo, Alopecurus myosuroides
In short: as §1

[9] = test system: VERPE; assay: as above; type: in vivo, Veronica persica; conditions: application rate 1280 g/ha; Table A11
Text: Seeds of mono- and dicotyledonous weed plants were sown in plastic pots (double sowings with one species of mono- and one species of dicotyledonous weed plants per pot), in sandy loam, and covered with soil. The compounds according to the invention, formulated in the form of wettable powders (WP) or as emulsifiable concentrates (EC), were applied to the surface of the covering soil as aqueous suspension or emulsion, with the addition of 0.5% of an additive, at an application rate of 6001 of water per hectare (converted). Following treatment, the pots were placed in a greenhouse and kept under optimum growth conditions for the test plants. The visual grading of the damage to the test plants was carried out after ca. 3 weeks in comparison to untreated controls (herbicidal effect in percent (%): 100% effect = plants have died off, 0% effect = as control plants). Tables A1 to A12, below, show the effects of selected compounds of the general formula (I) according to table 1 on various harmful plants and an application rate corresponding to 1280 g/ha or below obtained by the experimental procedure mentioned above. Table A1: pre-emergence activity at 1280g/ha against ABUTH in %

[10] = test system: DIGSA; assay: as above; type: in vivo, Digitaria sanguinalis
In short: as §1

[11] = test system: ABUTH; assay: B. Herbicidal post-emergence action on harmful plants (Tables B); type: in vivo, Abutilon theophrasti
Protocol: (§2) Seeds of mono- and dicotyledonous weed plants were placed in plastic pots in sandy loam soil (doubly sown with in each case one species of mono- or dicotyledonous weed plants per pot), covered with soil and cultivated in a greenhouse under controlled growth conditions. 2 to 3 weeks after sowing, the test plants were treated at the one-leaf stage. The compounds of the invention, formulated in the form of wettable powders (WP) or as emulsion concentrates (EC), were applied onto the green parts of the plants as aqueous suspension or emulsion with addition of 0.5% additive at a water application rate of 600 liters per hectare (converted). After the test plants had been kept in the greenhouse under optimum growth conditions for about 3 weeks, the activity of the preparations was rated visually in comparison to untreated controls. For example, 100% activity = the plants have died, 0% activity = like control plants. Tables B1 to B12, below, show the effects of selected compounds of the general formula (I) according to table 1 on various harmful plants and an application rate corresponding to 1280 g/ha or below obtained by the experimental procedure mentioned above. Table B1a: post-emergence activity at 1280g/ha against ABUTH in %

[12] = test system: ECHCG; assay: as above; type: in vivo, Echinochloa crus-galli
In short: (§3)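 Activity was scored visually as % damage (100% = dead, 0% = like untreated) about 3 weeks after treatment. Plants at the one-leaf stage, 2-3 weeks old, were sprayed with WP/EC formulations plus 0.5% additive (600 L/ha water, up to 1280 g/ha). Plants were grown in sandy loam in a greenhouse.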

[13] = test system: MATIN; assay: as above; type: in vivo, Matricaria inodora
In short: as §3

[14] = test system: SETVI; assay: as above; type: in vivo, Setaria viridis; conditions: application rate 1280 g/ha; Table B5
Protocol: as §2

[15] = test system: STEME; assay: as above; type: in vivo, Stellaria media; conditions: application rate 1280 g/ha; Table B6
Protocol: as §2

[16] = test system: POAAN; assay: as above; type: in vivo, Poa annua
In short: as §3

[17] = test system: VERPE; assay: as above; type: in vivo, Veronica persica
In short: as §3

[18] = test system: DIGSA; assay: as above; type: in vivo, Digitaria sanguinalis; conditions: application rate 1280 g/ha; Table B12a
Protocol: as §2

[19] = test system: ZEAMX; assay: D. Pre-emergence effects on crop plants (Tables D); type: in vivo, Zea mays; conditions: crop plant
Text: (§4) Seeds of mono- and dicotyledonous weed plants and crop plants were sown, in plastic or organic planting pots, in sandy loam and covered with soil. The compounds according to the invention, formulated in the form of wettable powders (WP) or as emulsifiable concentrates (EC), were applied to the surface of the covering soil as aqueous suspension or emulsion, with the addition of 0.5% of an additive, at an application rate of 6001 of water/ha (converted).
(§5) Following treatment, the pots were placed in a greenhouse and kept under optimum growth conditions for the test plants. The visual grading of the damage to the test plants was carried out after ca. 3 weeks in comparison to untreated controls (herbicidal effect in percent (%): 100% effect = plants have died off, 0% effect = as control plants).
(§6) Tables D1 to D5 below show the effects of various compounds of the general formula (I) according to Table 1 on various crop plants and an application rate corresponding to 320 g/ha or below obtained by the experimental procedure mentioned above in Biological Examples, Section C. Table D1a: pre-emergence activity at 320g/ha against ZEAMX in %

[20] = test system: TRZAS; assay: D. Pre-emergence effects on crop plants (Tables D); type: in vivo, Triticum aestivum; conditions: crop plant
Text: as §4, §5, §6

[21] = test system: GLXMA; assay: D. Pre-emergence effects on crop plants (Tables D); type: in vivo, Glycine max; conditions: crop plant
Text: as §4, §5, §6

[22] = test system: BRSNW; assay: D. Pre-emergence effects on crop plants (Tables D); type: in vivo, Brassica napus; conditions: crop plant
Text: as §4, §5, §6

[23] = test system: ZEAMX; assay: F. Post-emergence effects on crop plants (Tables F); type: in vivo, Zea mays; conditions: crop plant
Text: (§7) Seeds of mono- and dicotyledonous weed plants and crop plants were sown, in plastic or organic planting pots, in sandy loam, covered with soil and grown in a greenhouse under controlled growth conditions. 2 to 3 weeks after sowing, the test plants were sprayed in the single-leaf stage. The compounds according to the invention, formulated in form of wettable powders (WP) or as emulsifiable concentrates (EC), were sprayed onto the green plant parts as aqueous suspension or emulsion, with the addition of 0.5% of an additive, at an application rate of 6001 of water/ha (converted). The test plants were placed in the greenhouse for ca. 3 weeks under optimum growth conditions, and then the effect of the preparations was assessed visually in comparison with untreated controls (herbicidal effect in percent (%): 100% effect = plants have died off, 0% effect = as control plants). Tables F1 to F5 below show the effects of selected compounds of the general formula (I) according to table 1 on various crop plants and an application rate corresponding to 320 g/ha or below obtained by the experimental procedure mentioned above. Table […]: post-emergence activity at 320g/ha against ZEAMX in %

[24] = test system: TRZAS; assay: as above; type: in vivo, Triticum aestivum; conditions: crop plant
Text: as §7

[25] = test system: GLXMA; assay: as above; type: in vivo, Glycine max; conditions: application rate 320 g/ha, crop plant
Text: as §7

[26] = test system: BRSNW; assay: as above; type: in vivo, Brassica napus; conditions: application rate 320 g/ha, crop plant
Text: as §7

[27] = application rate 1280 g/ha, visual grading after ca. 3 weeks vs untreated controls, 100% = plants have died off, 0% = as control plants

COCc1nn(C)cc1C(=O)N1CCCC1Cc1c(F)cccc1F (single isomer, unassigned) [Example I-082]
90%: pre-emergence activity against ECHCG ([1]; application rate 80 g/ha) | pre-emergence activity against ECHCG ([1]; application rate 320 g/ha) | pre-emergence activity against LOLRI ([2]; application rate 80 g/ha) | pre-emergence activity against MATIN ([3]; application rate 80 g/ha) | pre-emergence activity against MATIN ([3]; application rate 320 g/ha) | pre-emergence activity against MATIN ([3]; application rate 1280 g/ha) | pre-emergence activity against SETVI ([4]; application rate 80 g/ha) | pre-emergence activity against STEME ([5]; application rate 80 g/ha) | pre-emergence activity against STEME ([5]; application rate 320 g/ha) | pre-emergence activity against STEME ([5]; application rate 1280 g/ha) | pre-emergence activity against AMARE ([7]; application rate 320 g/ha, Table A8b) | pre-emergence activity against AMARE [7, 27] | pre-emergence activity against ALOMY ([8]; application rate 320 g/ha, Table A9b) | pre-emergence activity against ALOMY ([8]; application rate 1280 g/ha, Table A9a) | pre-emergence activity against VERPE [9] | post-emergence activity against ABUTH ([11]; application rate 320 g/ha, treated at the one-leaf stage, rated visually after about 3 weeks vs untreated controls, 100% = the plants have died, 0% = like control plants) | post-emergence activity against ABUTH ([11]; application rate 1280 g/ha, Table B1a) | post-emergence activity against ECHCG ([12]; application rate 320 g/ha, Table B2b) | post-emergence activity against ECHCG ([12]; application rate 1280 g/ha, Table B2a) | post-emergence activity against MATIN ([13]; application rate 320 g/ha, Table B4b) | post-emergence activity against MATIN ([13]; application rate 1280 g/ha, Table B4a) | post-emergence activity against SETVI [14] | post-emergence activity against STEME [15] | post-emergence activity against POAAN ([16]; application rate 80 g/ha, Table B7c) | post-emergence activity against POAAN ([16]; application rate 320 g/ha, Table B7b) | post-emergence activity against VERPE ([17]; application rate 320 g/ha, Table B11b) | post-emergence activity against VERPE ([17]; application rate 1280 g/ha, Table B11a) | post-emergence activity against DIGSA [18]
100%: pre-emergence activity against ECHCG ([1]; application rate 1280 g/ha) | pre-emergence activity against LOLRI ([2]; application rate 320 g/ha) | pre-emergence activity against LOLRI ([2]; application rate 1280 g/ha) | pre-emergence activity against SETVI ([4]; application rate 320 g/ha) | pre-emergence activity against SETVI ([4]; application rate 1280 g/ha) | pre-emergence activity against POAAN ([6]; application rate 80 g/ha, Table A7c) | pre-emergence activity against POAAN ([6]; application rate 320 g/ha, Table A7b) | pre-emergence activity against POAAN [6, 27] | pre-emergence activity against DIGSA ([10]; application rate 80 g/ha, Table A12c) | pre-emergence activity against DIGSA ([10]; application rate 320 g/ha, Table A12b) | pre-emergence activity against DIGSA ([10]; application rate 1280 g/ha, Table A12a) | post-emergence activity against POAAN ([16]; application rate 1280 g/ha, Table B7a)

Cn1cc(C(=O)N2CCCC2Cc2ccccc2F)c(COCC2COC2)n1 (racemic) [Example I-091]
0%: pre-emergence activity against ZEAMX ([19]; application rate 80 g/ha, Table D1b) | pre-emergence activity against ZEAMX ([19]; application rate 320 g/ha, Table D1a) | pre-emergence activity against TRZAS ([20]; application rate 80 g/ha, Table D2b) | pre-emergence activity against TRZAS ([20]; application rate 320 g/ha, Table D2a) | pre-emergence activity against GLXMA ([21]; application rate 80 g/ha, Table D4b) | pre-emergence activity against GLXMA ([21]; application rate 320 g/ha, Table D4a) | pre-emergence activity against BRSNW in % ([22]; application rate 80 g/ha) | pre-emergence activity against BRSNW in % ([22]; application rate 320 g/ha) | post-emergence activity against ZEAMX in % ([23]; application rate 80 g/ha) | post-emergence activity against ZEAMX in % ([23]; application rate 320 g/ha) | post-emergence activity against TRZAS in % ([24]; application rate 80 g/ha) | post-emergence activity against TRZAS in % ([24]; application rate 320 g/ha) | post-emergence activity against GLXMA in % [25] | post-emergence activity against BRSNW in % [26]

From EP4417602A1, “SUBSTITUTED PYRAZOLE CARBOXAMIDES, SALTS THEREOF AND THEIR USE AS HERBICIDALLY ACTIVE SUBSTANCES” (Bayer AG, priority 2023, dated 2024)
